According to ChEMBL document CHEMBL4732070, “Design, synthesis and biological assessment of new selective COX-2 inhibitors including methyl sulfonyl moiety” (Eur J Med Chem, 2021):

Key:
[1] = molecular target: T1, Prostaglandin G/H synthase 1 (Homo sapiens, UniProt P23219); assay: Inhibition of COX-1 (unknown origin) using arachidonic acid as substrate at 1000 uM measured after 10 mins by fluorometric based multimode microplate reader relative to control
[2] = molecular target: T1, Prostaglandin G/H synthase 1; assay: Inhibition of COX-1 (unknown origin) using arachidonic acid as substrate at 100 uM measured after 10 mins by fluorometric based multimode microplate reader relative to control
[3] = molecular target: T1, Prostaglandin G/H synthase 1; assay: Inhibition of COX-1 (unknown origin) using arachidonic acid as substrate measured after 10 mins by fluorometric based multimode microplate reader

T1 sequence (P23219 whole entry): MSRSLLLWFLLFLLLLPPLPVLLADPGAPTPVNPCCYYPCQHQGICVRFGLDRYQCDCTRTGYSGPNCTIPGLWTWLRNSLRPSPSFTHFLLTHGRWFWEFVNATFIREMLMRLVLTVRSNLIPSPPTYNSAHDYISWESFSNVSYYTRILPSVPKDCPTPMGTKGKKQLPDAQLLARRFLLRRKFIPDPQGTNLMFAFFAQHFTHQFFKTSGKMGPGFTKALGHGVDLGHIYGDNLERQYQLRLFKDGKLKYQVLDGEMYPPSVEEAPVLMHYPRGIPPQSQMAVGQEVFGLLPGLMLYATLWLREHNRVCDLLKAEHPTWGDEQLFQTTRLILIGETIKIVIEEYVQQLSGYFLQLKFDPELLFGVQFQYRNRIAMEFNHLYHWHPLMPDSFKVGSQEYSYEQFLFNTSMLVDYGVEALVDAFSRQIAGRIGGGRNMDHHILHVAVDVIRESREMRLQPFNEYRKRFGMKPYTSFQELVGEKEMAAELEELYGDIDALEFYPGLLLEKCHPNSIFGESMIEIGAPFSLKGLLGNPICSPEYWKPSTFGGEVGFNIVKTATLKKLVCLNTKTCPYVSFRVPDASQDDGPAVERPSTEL

SMILES | inhibition [1] [%] | inhibition [2] [%] | IC50 [3] [µM]
COc1cc(/C=N/Nc2nc(-c3ccc(S(C)(=O)=O)cc3)cs2)cc(OC)c1OC | 45.7 | 35.8 | > 1000
CS(=O)(=O)c1ccc(-c2csc(N/N=C/c3ccc(O)cc3)n2)cc1 | 48.9 | 32.2 | > 1000
COc1cc(/C=N/Nc2nc(-c3ccc(S(C)(=O)=O)cc3)cs2)cc(OC)c1O | 43.3 | 32.3 | > 1000
CS(=O)(=O)c1ccc(-c2csc(N/N=C/c3cccc(O)c3)n2)cc1 | 66.3 | 40.9 | > 100
COc1ccccc1/C=N/Nc1nc(-c2ccc(S(C)(=O)=O)cc2)cs1 | 43.1 | 30.8 | > 1000
COc1cccc(/C=N/Nc2nc(-c3ccc(S(C)(=O)=O)cc3)cs2)c1OC | 57.4 | 40.8 | > 100
CC(C)Cc1ccc(C(C)C(=O)O)cc1 (configuration not stated) |  | 89.4 | 
COc1ccc(OC)c(/C=N/Nc2nc(-c3ccc(S(C)(=O)=O)cc3)cs2)c1 | 60 | 35 | > 100
COc1ccc(/C=N/Nc2nc(-c3ccc(S(C)(=O)=O)cc3)cs2)c(OC)c1 | 44.6 | 27.7 | > 1000
COc1ccc(/C=N/Nc2nc(-c3ccc(S(C)(=O)=O)cc3)cs2)cc1OC | 55.6 | 40 | > 100
CS(=O)(=O)c1ccc(-c2csc(N/N=C/c3ccc(O)cc3O)n2)cc1 | 47.1 | 31.4 | > 1000
COc1ccc(/C=N/Nc2nc(-c3ccc(S(C)(=O)=O)cc3)cs2)cc1O | 61.3 | 41.2 | > 100
COc1ccc(O)c(/C=N/Nc2nc(-c3ccc(S(C)(=O)=O)cc3)cs2)c1 | 53 | 43 | > 100
